Assay results taken from patent US20060115815A1 (priority 2002, published 2006).
Read-outs that look alike come from different tables or passages of the source.

How the values were obtained:
[1] = tested on: 46I50V; experiment: microbe, parasite or virus in culture; type: cell-based, HIV-1
[2] = tested on: 48V54V82A; experiment: microbe, parasite or virus in culture; type: cell-based, HIV-1
[3] = tested on: WT; experiment: microbe, parasite or virus in culture; type: cell-based, HIV-1
[4] = molecular target: T1, 84V90M (Human immunodeficiency virus type 1 group M subtype B, UniProt P04585, I572V/L578M); experiment: cell-based; set-up: species or system HIV-1
[5] = molecular target: T1, 84V90M; experiment: biochemical; set-up: species or system HIV-1
[6] = tested on: 30N82I88D; experiment: microbe, parasite or virus in culture; type: cell-based, HIV-1
[7] = tested on: WT HIV-1; experiment: microbe, parasite or virus in culture; type: cell-based
[8] = tested on: recombinant HIV-1 strains with resistance mutations in the protease gene; experiment: Cross-resistance profile assay, whole panel of mutant viruses; type: cell-based
[9] = beagle, dog, in vivo, po
[10] = tested on: 30N82I88D; set-up: species or system HIV-1; conditions: MT-4, 30N82I88D; read-out: Cell-based assay (MT-4) EC50/nM 30N82I88D
[11] = tested on: 48V54V82A; set-up: species or system HIV-1; conditions: MT-4, 48V54V82A; read-out: Cell-based assay (MT-4) EC50/nM 48V54V82A
[12] = tested on: mutant HIV-1 with I84V/L90M mutations in the protease gene; type: cell-based; conditions: MT-4, 84V90M; read-out: Cell-based assay (MT-4) EC50/nM 84V90M
[13] = tested on: 46I50V; set-up: species or system HIV-1; conditions: MT-4, 46I50V; read-out: Cell-based assay (MT-4) EC50/nM 46I50V
[14] = molecular target: recombinant HIV-1 protease (Human immunodeficiency virus type 1 group M subtype B, UniProt P04585); experiment: biochemical; type: biochemical; conditions: for Ki: read-out: Enzymatic assay Ki
[15] = tested on: PBMC in intact human whole blood
[16] = Human immunodeficiency virus 1, read-out: Cell-based assay (MT-4) EC50 46I50V
[17] = Human immunodeficiency virus 1, read-out: Cell-based assay (MT-4) EC50 48V54V82A
[18] = Human immunodeficiency virus 1, read-out: Cell-based assay (MT-4) EC50 WT
[19] = Human immunodeficiency virus 1, read-out: Cell-based assay (MT-4) EC50 30N82I88D
[20] = Human immunodeficiency virus 1, read-out: EC50 [nM] WT HIV-1
[21] = MT-4, 46I50V, read-out: Cell-based assay (MT-4) EC50 46I50V
[22] = MT-4, 48V54V82A, read-out: Cell-based assay (MT-4) EC50 48V54V82A
[23] = read-out: Cell-based assay (MT-4) EC50 WT
[24] = MT-4, 30N82I88D, read-out: Cell-based assay (MT-4) EC50 30N82I88D
[25] = MT-4, 84V90M, read-out: Cell-based assay (MT-4) EC50 84V90M
[26] = 84V90M enzyme, read-out: Enzymatic assay 84V90M IC50
[27] = MT-4, WT, read-out: Cell-based assay (MT-4) EC50/nM WT

## CCOP(=O)(CCCNC(=O)c1cccc(CN2C(=O)N(Cc3cccc(N)c3)C(Cc3ccccc3)C(O)C(O)C2Cc2ccccc2)c1)OCC (centres unmarked)
[1]; [16]
  EC50: 195 nM
[2]; [17]
  EC50: 233 nM
[3]; [18]
  EC50: 176 nM
[4]
  EC50: 824 nM
[5]
  IC50: 29 nM
[6]; [19]
  EC50: 171 nM

## CC(C)(C)NC(=O)[C@@H]1CN(Cc2cccnc2)CCN1C[C@@H](O)C[C@@H](Cc1ccccc1)C(=O)N[C@H]1c2ccccc2C[C@H]1O [Indinavir, reference compound]
[7]; [20]
  EC50: 15 nM
[8]; {}
  Total No. of Resistant Viruses: 8

## CCOP(=O)(COc1ccc(CC2C(O)C(O)C(Cc3ccc(O)cc3)N(Cc3ccc(O)cc3)C(=O)N2Cc2ccc(O)cc2)cc1)OCC (centres unmarked) [OH, Ph-pOH, OCH2PO3Et2]
[1]; [21]
  EC50: 1110 nM
[2]; [22]
  EC50: 986 nM
[3]; [23]
  EC50: 285 nM
[6]; [24]
  EC50: 211 nM

## Nc1n[nH]c2ccc(CN3C(=O)N(Cc4cccc(O)c4)C(Cc4ccccc4)C(O)C(O)C3Cc3ccccc3)cc12 (centres unmarked) [m-OH]
[1]; [16]
  EC50: 104 nM
[2]; [17]
  EC50: 84 nM
[3]; [18]
  EC50: 151 nM
[4]
  EC50: 475 nM
[6]; [19]
  EC50: 249 nM

## CC(C)CN(C[C@@H](O)[C@H](Cc1ccccc1)NC(=O)O[C@H]1CCOC1)S(=O)(=O)c1ccc(N)cc1 [Amprenavir]
[9]
  AUC(2-24 hr) in PBMCs: 102,000 nM · hr
  t1/2: 1.7 h
  t1/2 (hr) in PBMCs: 1.7 h
[7]; [20]
  EC50: 20 nM
[8]; {}
  Total No. of Resistant Viruses: 4

## CCOP(=O)(COc1cccc(CN2C(=O)N(Cc3ccc4[nH]nc(N)c4c3)C(Cc3ccccc3)C(O)C(O)C2Cc2ccccc2)c1)OCC (centres unmarked)
[1]; [16]
  EC50: 857 nM
[2]; [17]
  EC50: 513 nM
[3]; [18]
  EC50: 665 nM
[4]
  EC50: 3010 nM
[6]; [19]
  EC50: 93 nM

## CCOP(=O)(CCCNC(=O)c1cccc(CN2C(=O)N(Cc3ccc4[nH]nc(N)c4c3)[C@H](Cc3ccccc3)[C@H](O)[C@@H](O)[C@H]2Cc2ccccc2)c1)OCC
[1]; [21]
  EC50: 319 nM
[2]; [22]
  EC50: 240 nM
[3]; [23]
  EC50: 188 nM
[4]; [25]
  EC50: 476 nM
[6]; [24]
  EC50: 666 nM

## Nc1n[nH]c2ccc(CN3C(=O)N(Cc4cccc(C(=O)O)c4)[C@H](Cc4ccccc4)[C@H](O)[C@@H](O)[C@H]3Cc3ccccc3)cc12
[4]; [25]
  EC50: > 6000 nM
[5]; [26]
  IC50: 27 nM
[6]; [24]
  EC50: > 6000 nM

## O=C1N(Cc2ccccc2)[C@H](Cc2ccccc2)[C@H](O)[C@@H](O)[C@@H](Cc2ccc(O)cc2)N1Cc1ccccc1 [R=H, R1=Ph, R2=OH]
[10]
  EC50: 2950 nM
[7]; [27]
  EC50: 1260 nM
[11]
  EC50: > 6000 nM
[12]
  EC50: > 6000 nM

## O=C1N(Cc2ccccc2)[C@H](Cc2ccccc2)[C@H](O)[C@@H](O)[C@@H](Cc2ccc(OCP(=O)(OCc3ccccc3)OCc3ccccc3)cc2)N1Cc1ccccc1
[10]
  EC50: 3140 nM
[7]; [27]
  EC50: 1770 nM
[11]
  EC50: > 6000 nM
[12]
  EC50: > 6000 nM

## Nc1n[nH]c2ccc(CN3C(=O)N(CCCOCP(=O)(O)O)C(Cc4ccccc4)C(O)C(O)C3Cc3ccccc3)cc12 (centres unmarked) [OCH2PO3H2]
[3]; [18]
  EC50: 1070 nM
[4]
  EC50: > 6000 nM
[5]
  IC50: 137 nM

## CC(C)c1nc(CN(C)C(=O)N[C@H](C(=O)N[C@@H](Cc2ccccc2)C[C@H](O)[C@H](Cc2ccccc2)NC(=O)OCc2cncs2)C(C)C)cs1 [Ritonavir, reference compound]
[7]; [20]
  EC50: 15 nM
[8]; {}
  Total No. of Resistant Viruses: 10

## Cc1c(O)cccc1C(=O)N[C@@H](CSc1ccccc1)[C@H](O)CN1C[C@H]2CCCC[C@H]2C[C@H]1C(=O)NC(C)(C)C [Nelfinavir]
[9]
  AUC(2-24 hr) in PBMCs: 33,000 nM · hr
  t1/2: 3.0 h
  t1/2 (hr) in PBMCs: 3.0 h
[7]; [20]
  EC50: 14 nM
[8]; {}
  Total No. of Resistant Viruses: 9

## COc1ccc(S(=O)(=O)N(CC(C)C)C[C@@H](O)[C@H](Cc2ccccc2)NC(=O)O[C@H]2CO[C@H]3OCC[C@H]32)cc1 [94-003, reference compound]
[7]; [20]
  EC50: 0.5 nM
[8]; {}
  Total No. of Resistant Viruses: 3

## Nc1n[nH]c2ccc(CN3C(=O)N(Cc4cccc(OCc5ccccc5)c4)C(Cc4ccccc4)C(O)C(O)C3Cc3ccccc3)cc12 (centres unmarked) [m-OBn]
[1]; [16]
  EC50: 601 nM
[2]; [17]
  EC50: 709 nM
[3]; [18]
  EC50: 218 nM
[4]
  EC50: 2420 nM
[5]
  IC50: 27 nM
[6]; [19]
  EC50: 82 nM

## CCOP(=O)(COc1ccc(CN2C(=O)N(Cc3ccc4[nH]nc(N)c4c3)C(Cc3ccccc3)C(O)C(O)C2Cc2ccccc2)cc1)OCC (centres unmarked)
[3]; [18]
  EC50: 2480 nM
[4]
  EC50: > 6000 nM
[6]; [19]
  EC50: 1340 nM

## O=C1N(Cc2ccccc2)[C@H](Cc2ccccc2)[C@H](O)[C@@H](O)[C@@H](Cc2ccccc2)N1Cc1ccc2[nH]ncc2c1 [drawing 863, reference compound]
[4]
  EC50: 2310 nM
[5]; [26]
  IC50: 43.3 nM

## CC(C)(C)NC(=O)[C@@H]1C[C@@H]2CCCC[C@@H]2CN1C[C@@H](O)[C@H](Cc1ccccc1)NC(=O)[C@H](CC(N)=O)NC(=O)c1ccc2ccccc2n1 [Saquinavir, reference compound]
[7]; [20]
  EC50: 4 nM
[8]; {}
  Total No. of Resistant Viruses: 4

## CCOP(=O)(COCCCCN1C(=O)N(Cc2ccc3[nH]nc(N)c3c2)C(Cc2ccccc2)C(O)C(O)C1Cc1ccccc1)OCC (centres unmarked) [CH2OCH2PO3Et2]
[4]
  EC50: 3300 nM

## Nc1n[nH]c2ccc(CN3C(=O)N(Cc4cccc(OCP(=O)(OCc5ccccc5)OCc5ccccc5)c4)C(Cc4ccccc4)C(O)C(O)C3Cc3ccccc3)cc12 (centres unmarked)
[1]; [16]
  EC50: 3120 nM
[2]; [17]
  EC50: 2600 nM
[3]; [18]
  EC50: 898 nM
[4]
  EC50: > 6000 nM
[6]; [19]
  EC50: 705 nM

## CCOP(=O)(COc1ccc(CC2C(O)C(O)C(Cc3ccc(OC)cc3)N(Cc3cccc(N)c3)C(=O)N2Cc2cccc(N)c2)cc1)OCC (centres unmarked) [OCH3, Ph-mNH2, OCH2PO3Et2]
[4]
  EC50: 535 nM

## O=C1N(Cc2ccccc2)[C@H](Cc2ccccc2)[C@H](O)[C@@H](O)[C@@H](Cc2ccccc2)N1Cc1ccc2[nH]ncc2c1 [drawing 870]
[10]
  EC50: 281 nM
[13]
  EC50: 772 nM
[7]; [27]
  EC50: 193 nM
[11]
  EC50: 705 nM

## COc1ccc(CN2C(=O)N(Cc3ccc(OCc4ccccc4)cc3)[C@H](Cc3ccccc3)[C@H](O)[C@@H](O)[C@H]2Cc2ccccc2)cc1C#N
[14]
  Ki: > 5 nM
[7]; [27]
  EC50: 5950 nM

## CCOP(=O)(CCCNC(=O)c1cccc(CN2C(=O)N(Cc3ccc4[nH]nc(N)c4c3)C(Cc3ccccc3)C(O)C(O)C2Cc2ccccc2)c1)OCC (centres unmarked)
[3]; [18]
  EC50: 188 nM
[4]
  EC50: 476 nM

## Nc1n[nH]c2ccc(CN3C(=O)N(CCCCOCP(=O)(O)O)C(Cc4ccccc4)C(O)C(O)C3Cc3ccccc3)cc12 (centres unmarked) [CH2OCH2PO3H2]
[4]
  EC50: > 4240 nM

## CCOC(=O)C(C)OP(=O)(CCCNC(=O)c1cccc(CN2C(=O)N(Cc3ccc4[nH]nc(N)c4c3)[C@H](Cc3ccccc3)[C@H](O)[C@@H](O)[C@H]2Cc2ccccc2)c1)Oc1ccccc1 (some centres unmarked)
[1]; [21]
  EC50: 209 nM
[2]; [22]
  EC50: 208 nM
[14]
  Ki: 0.112 nM
[14]; read-out: Enzymatic assay WT IC50
  IC50: 1.4 nM
[3]; [23]
  EC50: 603 nM
[4]; [25]
  EC50: 1280 nM
[5]; [26]
  IC50: 6.4 nM
[6]; [24]
  EC50: 678 nM

## CCOC(=O)C(C)NP(=O)(COc1ccc(CC(NC(=O)OC2COC3OCCC23)C(O)CN(CC(C)C)S(=O)(=O)c2ccc(OC)cc2)cc1)Oc1ccccc1 (centres unmarked) [GS-16571]
[15]
  Intracellular Acid Metabolite Concentration: 319 ± 112 µM
  Intracellular Prodrug Concentration: 137 ± 62 µM
  Intracellular Prodrug and Metabolites Concentration, uM: Acid Metabolite: 319 ± 112 µM
  Intracellular Prodrug and Metabolites Concentration: Prodrug: 137 ± 62 µM
  Intracellular Prodrug and Metabolites Concentration: Total: 432 ± 208 µM
[8]; of 11 mutant viruses, resistance = 5-fold and higher change in EC50 relative to wild-type
  Total No. of Resistant Viruses: 0

## Nc1n[nH]c2ccc(CN3C(=O)N(Cc4ccc(OCP(=O)(OCc5ccccc5)OCc5ccccc5)cc4)C(Cc4ccccc4)C(O)C(O)C3Cc3ccccc3)cc12 (centres unmarked)
[3]; [18]
  EC50: 2700 nM
[4]
  EC50: 4960 nM
[6]; [19]
  EC50: 2120 nM

## CCOP(=O)(COc1ccc(CC2C(O)C(O)C(Cc3ccccc3)N(Cc3ccccc3)C(=O)N2Cc2ccccc2)cc1)OCC (centres unmarked)
[7]; Human immunodeficiency virus 1, read-out: Cell-based assay (MT-4) EC50/nM WT
  EC50: 107 nM

## Nc1cccc(CN2C(=O)N(Cc3cccc(C(=O)O)c3)C(Cc3ccccc3)C(O)C(O)C2Cc2ccccc2)c1 (centres unmarked)
[3]; [18]
  EC50: 2340 nM
[4]
  EC50: > 6000 nM
[5]
  IC50: 299 nM
[6]; [19]
  EC50: 3360 nM

## CCOP(=O)(COCCCN1C(=O)N(Cc2ccc3[nH]nc(N)c3c2)C(Cc2ccccc2)C(O)C(O)C1Cc1ccccc1)OCC (centres unmarked) [OCH2PO3Et2]
[4]
  EC50: > 6000 nM
